Results: paper PMC5517562, “Design and discovery of novel monastrol-1,3,5-triazines as potent anti-breast cancer agent via attenuating Epidermal Growth Factor Receptor tyrosine kinase” (Scientific Reports, 2017)

Columns and labels:
Format in all cases: cell-based, human
HeLa (cervical cancer) = assay: MTT in vitro cytotoxicity assay, HeLa; details: Homo sapiens
Description: (§1) The synthesized compounds were evaluated for in-vitro cytotoxic activity against various cell lines such as HeLa (cervical cancer), MCF-7 (breast cancer), HL-60 (Human promyelocytic leukemia), HepG2 (Hepatocellular carcinoma) and MCF 12A (normal epithelial cell) by the MTT assay method. […] The relationship between surviving fraction and drug concentration was plotted to obtain the survival curve of all the cancer cell lines HeLa, MCF-7, HL-60 and HepG2. The response parameter calculated was the IC50 values, which responds to the concentration required for 50% inhibition of cell viability. The in-vitro cytotoxic activity of the synthesized compounds is summarized Table 3.
(§2) The target compounds were subjected to in vitro cytotoxicity bioassay. In vitro cytotoxicity was determined using a standard MTT assay with protocol appropriate for the individual test system[29]–[31]. The four human cancer cell lines HeLa, MCF-7, HL-60, HepG2 and MCF-12A were cultured in the MEM medium supplemented with 10% FBS, 1% glutamine and […] gentamicin sulfate in a CO2 incubator in a humidified atmosphere of 5% CO2 and 95% air. The test compounds were prepared prior to the experiment by dissolving in 0.1% DMSO and diluted with medium. The cells were then exposed to different concentrations of drugs ([…]) in the volume of […]. Cells in the control wells received the same volume of medium containing 0.1% DMSO. After 24 h, the medium was removed and cell cultures were incubated with […] MTT reagent (1 mg/ml) for 5 h at 37 °C. The known number of cells ([…]) was incubated in a 5% CO2 incubator at 37 °C in the presence of different concentrations of test compounds. After 48 h of drug incubation, the MTT solution was added in each well and absorbance was recorded at 540 nm by an ELISA reader. The experiment was performed in triplicate. Cell survival was calculated as the percentage of MTT inhibition as % growth inhibition = 100 − (mean OD of individual test Group/Mean OD of each Control Group) × 100.

MCF-7 (breast cancer) = assay: MTT in vitro cytotoxicity assay, MCF-7; details: Homo sapiens, MCF7
Description: as §1, §2

[1] = system: MCF 12A (normal epithelial breast cell line); assay: MTT assay on normal cells, MCF 12A; details: normal epithelial breast cell MCF 12A
Description: as §1
The presence of non-halogen substituent along with electron donating substituent seriously jeopardise the anticancer potential. […] To determine the selectivity of these molecules between normal and cancerous cells, the designed compounds were also tested against MCF 12A, a normal epithelial breast cell.
as §2

[2] = system: p-EGFR and p-Akt levels of MCF-7; assay: Western blot of EGFR activation and downstream signalling in MCF-7; details: immunoblotting, concentration-dependent
Text: However, despite of excellent inhibitory activity of 7l against the EGFR-TK, its mechanism behind this phenomena has not been elucidate till now, thus, in this part of the study, we are interested in exploring the effect of compound 7l on the activation and downstream signalling pathway of the EGFR. Towards this, the effect of 7l has been determined on the expression of p-EGFR and EGFR, p-Akt and Akt levels of MCF-7 by immunoblotting experiments. Results as presented in Fig. 14 confirmed the effect of 7l on the expression of p-EGFR and p-Akt. […] Results clearly indicate the ability of 7l to inhibit the phosphorylation of EGFR which in turn decreases Akt (the downstream target protein of p-EGFR).
After incubation with the test compound, the cells were harvested and washed with PBS, and then lysed in lysis buffer. After centrifugation at 12,000 × g for 5 min, the supernatant was collected as total protein. The concentration of the protein was determined by a protein assay kit. The protein samples were separated by 10% SDS–PAGE and subsequently electro-transferred onto a PVDF (Millipore, Bedford, MA, USA). […] The antibodies were purchased from Cell Signaling Technology (MA, USA) Thus, the expression of p-EGFR, EGFR, p-Akt (pS473) and Akt were visualized by enhanced chemiluminescence (ECL) (Thermofischer Scientific Inc. USA) kit and band intensity was analyzed by image j software.

Compound: CCOC(=O)C1=C(C)N(c2nc(Nc3cccc(F)c3)nc(Nc3cccc(F)c3)n2)C(=S)NC1c1ccc(F)cc1 (centres unmarked) [7l, Ethyl 1-(4,6-bis((3-fluorophenyl)amino)-1,3,5-triazin-2-yl)-4-(4-fluorophenyl)-6-methyl-2-thioxo-1,2,3,4-tetrahydropyrimidine-5-carboxylate]
- IC50 (HeLa (cervical cancer)): 39.7 ± 0.81 µM
- IC50 (MCF-7 (breast cancer)): 41.5 ± 0.31 µM
- IC50 MCF 12A [1]: non-toxic
- Level of p-Akt [2]: significantly reduced
- Level of p-EGFR [2]: significantly reduced
